These are literature values, as cited in publication PMC8954523 (Pharmaceutics, 2022).

The conditions of data set [1]: 298.15 K; cited from earlier work.
For data set [2] the following is noted: ref 31; cited from earlier work.

≈ marks a conversion by molar mass, not a printed value.

For `CNC(=O)c1ccc(N2C(=S)N(c3ccc(C#N)c(C(F)(F)F)c3)C(=O)C2(C)C)cc1F` [enzalutamide], the aqueous solubility – broadly, the dissolved amount per volume that the medium holds – in data set [1] was 3.92 µM (≈ 1.82 µg/mL). Besides, the “log DCoct/w” value in data set [2] is recorded as 4.02.

For the compound `CNC(=O)c1ccc(N2C(=S)N(c3cnc(C#N)c(C(F)(F)F)c3)C(=O)C23CCC3)cc1F` [apalutamide], the aqueous solubility in data set [1] is 7.78 µM (≈ 3.71 µg/mL). Also, the “log DCoct/w” value in data set [2] is 3.90.
